Test results published in patent US20190054054A1, “Methods reducing or preventing oxidation of high density lipoprotein (HDL)” (Amarin Pharmaceuticals Ireland Limited, priority 2017, published 2019).
“And” between values parts separate entries of the source, which are not always exact repeats. Equal values may be shown once.

How the values were obtained:
[1] = Membrane cholesterol domain peak intensity, x-ray diffraction of POPC/cholesterol membranes (Example 9); conditions: 1.5:1 C/P mole ratio; for % change Vs control / Relative Cholesterol Domain Preak Intensity: drug-to-phospholipid mole ratio 1:30; for Relative Cholesterol Domain Preak Intensity: POPC and cholesterol
Experimental: The fatty acid stock solutions were stored at −20° C. until use. […] Samples were shell-dried under nitrogen gas and placed under vacuum for 3 hours to remove residual solvent at room temperature. After desiccation, each sample was resuspended in saline buffer (0.5 mM HEPES, 154 mM NaCl, pH 7.3) to yield a final phospholipid concentration of 2.5 mg/mL. Lipid suspensions were then vortexed for 3 minutes at ambient temperature to form MLVs. Membrane lipid vesicles were oriented for x-ray diffraction analysis as described by others (e.g., Herbette et al., Biophys. […] Briefly, a 100 μL aliquot of each MLV preparation (containing 250 μg MLV) was transferred to a Lucite® sedimentation cell fitted with an aluminum foil substrate designed to collect MLVs into a single membrane pellet upon centrifugation. […] After centrifugal orientation, sample supernatants were aspirated and aluminum foil substrates, each supporting a single membrane pellet, were removed from the sedimentation cells. Sample pellets were dried for 5-10 minutes at ambient conditions, mounted onto curved glass supports, and placed in hermetically-sealed, brass or glass containers (for immediate analysis or temporary storage, respectively). All x-ray diffraction experiments were conducted at 20° C., 74% relative humidity. The latter was established by exposing membrane samples to saturated solutions of L-(+)-tartaric acid (K2C4H4O6.½H2O) for at least 1 hour prior to experimental analysis. Oriented membrane samples were aligned at grazing incidence with respect to a collimated, mono-chromatic CuKα x-ray beam (Kα1 and Kα2 unresolved; λ=1.54 Å) produced by a Rigaku Rotaflex RU-200, high-brilliance microfocus generator (Rigaku-MSC, The Woodlands, Tex.) as previously described (Mason et al., Biophys. J., vol. 55(4), pages 769-778 (1989)). The samples were initially subjected to x-ray diffraction analysis at least 12 hours after formation of the membrane pellets and retested for up to several days. Analytical x-rays were generated by electron bombardment of a rotating copper anode and are filtered through a thin nickel foil to provide monochromatic radiation (λ=1.54 Å). Collimation of the x-ray beam was achieved using a single Franks mirror. Diffraction data were collected on a one-dimensional, position-sensitive electron detector (Hecus X-ray Systems, Graz, Austria) at a sample-to-detector distance of 150 mm from the sample site. The d-space for any given membrane multi bilayer is a measurement of the unit cell periodicity of the membrane lipid bilayer (e.g., the distance from the center of one lipid bilayer to the next including surface hydration), and is calculated from Bragg's Law, h λ=2 d sin θ, where h is the diffraction order, λ is the wavelength of the x-ray radiation (1.54 Å), d is the membrane lipid bilayer unit cell periodicity, and θ is the Bragg angle equal to one-half the angle between the incident beam and scattered beam. […] Routines written in Origin 8.6 (OriginLab Corporation, Northampton, Mass.) were used to determine total peak area (associated with all diffraction peaks in a given pattern) against which the second-order cholesterol domain peak was normalized. The raw data collected in this study was normalized using internal. Data were presented as mean+S.E.M. for (N) separate samples or treatment groups. Differences between groups were analyzed using the two-tailed, Student's t-test (for comparisons between only two groups) or ANOVA followed by Dunnett or Student-Newman-Keuls multiple comparisons post-hoc analysis (for comparisons between three or more groups). Alpha error was set to 0.05 in this study.

[2] = test system: HUVECs exposed to oxLDL; assay: NO and ONOO^− release from HUVECs exposed to oxLDL, nanosensors (Example 8); assay type: cell-based, human; conditions: oxLDL 20 min, then treatment for 1 hour; EPA 10 μM, ATM 1.0 μM
Experimental: Human umbilical vein endothelial cells (HUVECs) were isolated into primary cultures from female donors by Clonetics (San Diego, Calif.) and purchased as proliferating cells. All cell culture donors were healthy, with no pregnancy or prenatal complications. […] The confluent cells (4 to 5×10^5 cells/35 mm dish) were placed with minimum essential medium containing 3 mM L-arginine and 0.1 mM BH4 [(6R)-5,6,7,8-tetrahydrobiopterin]. Before experimental use, the cells (from second or third passage) were rinsed twice with Tyrode-HEPES buffer with 1.8 mM CaCl2).
The omega-3 fatty acids (O3FAs) cis-5,8,11,14,17-eicosapentaenoic acid (EPA) and docosahexaenoic acid (DHA) were purchased from Sigma-Aldrich (St. Louis, Mo.) and prepared initially at 11 mM in redistilled ethanol. Primary and secondary O3FA stock solutions were prepared and stored under argon at −20° C.
The oxLDL causes eNOS uncoupling and endothelial dysfunction to reproduce disease-like conditions. 25 Venous blood from healthy normolipidemic volunteers was collected into Na-EDTA (1 mg/mL blood) vacuum tubes after a 12-hour fast. Plasma was immediately separated by centrifugation at 3,000 g for 10 minutes at 4° C.
Tris-NaCl buffer was added to the dialyzed LDL to adjust the protein concentration to 30 mg/mL. A 1-mL aliquot of 20 μM CuSO4 was added to 1 mL of dialyzed normal LDL.
Oxidation was monitored by the use of measurements of TBARS. Briefly, LDL was incubated with thiobarbituric acid (0.5 wt/vol, in H2SO4, 50 mM) for 30 minutes at 100° C. […] TBARS concentration was determined as malondialdehyde (MDA) equivalents with the use of an MDA standard curve.
Concurrent measurements of NO and ONOO^− were performed with tandem electrochemical nanosensors combined into one working unit with a total diameter of 200-400 nm. Their design was based on previously developed and chemically modified carbon-fiber technology. Each of the nanosensors was made by depositing a sensing material on the tip of a carbon fiber (length 4 to 5 μm, diameter 100-200 nm). The fibers were sealed with nonconductive epoxy and electrically connected to copper wires with conductive silver epoxy. Conductive films of polymeric Ni(II) tetrakis (3-methoxy-4-hydroxyphenyl) porphyrin and Mn(III) [2.2] paracyclophanylporphyrin were used for the NO and ONOO^− sensors, respectively.
The amperometric method (with a response time of 0.1 ms) provides a quantitative signal (current) that is directly proportional to changes (from basal levels) in NO or ONOO^− concentration. Amperometric measurements were performed with a Gamry III double-channel potentiostat. Basal NO or ONOO^− levels were measured by differential pulse voltammetry in separate experiments.
All measurements of NO and ONOO^− were performed on intact endothelial cells. The NO/ONOO^− nanosensor module was positioned 5±2 μm from the surface of each individual endothelial cell using a computer-controlled M3301 micromanipulator (x-y-z resolution of 0.2 μm) and microscope (both from World Precision Instruments, Berlin, Germany) fitted with a CD camera.
Endothelial basal media was used for all the treatments. Controls were supplied with an equivalent volume of endothelial basal media.
Data are presented as mean±S.D. for (N) separate samples or experiments. Differences between groups were analyzed using the two-tailed, Student t-test (for comparisons between only two groups) or ANOVA followed by Student-Newman-Keuls multiple comparisons post-hoc analysis (for comparisons between three or more groups). Only differences with probability values less than 0.05 were considered significant.

[3] = test system: HUVECs; assay: NO release from HUVECs incubated with agent-treated oxidized sdLDL (Example 12); assay type: cell-based, human; conditions: oxidized sdLDL pretreated with agent at 10.0 μM
Experimental: All samples, with the exception of non-oxidized sdLDL controls, were subjected to copper-induced oxidation for 1 hour. Human umbilical vein endothelial cells (HUVECs) were incubated with the various sdLDL samples, stimulated with calcium, and monitored for nitric oxide (NO) and peroxynitrite (ONOO^−) release using nanosensor technology.

CCCCC/C=C\C/C=C\C/C=C\C/C=C\CCCC(=O)O [AA, arachidonic acid]
% change Vs control [1]: −45.2% and −46.8 ± 15.2%
Relative Cholesterol Domain Preak Intensity [1]: 22.5 ± 4.3

CC/C=C\C/C=C\C/C=C\CCCCCCCC(=O)O [ALA, α-linolenic acid]
% change Vs control [1]: −46.8% and −45.2 ± 11.3%
Relative Cholesterol Domain Preak Intensity [1]: 23.2 ± 0.6

CC1(C)[C@@H](O[C@H]2O[C@H](C(=O)O)[C@@H](O)[C@H](O)[C@H]2O[C@@H]2O[C@H](C(=O)O)[C@@H](O)[C@H](O)[C@H]2O)CC[C@]2(C)[C@H]3C(=O)C=C4[C@@H]5C[C@@](C)(C(=O)O)CC[C@]5(C)CC[C@@]4(C)[C@]3(C)CC[C@@H]12 [Glyc, glycyrrhizin]
reduction in cholesterol domain peaks as compared to vehicle treatment ([1]; 1:30): 54.9%
% change Vs control [1]: −54.9 ± 12.3%
Relative Cholesterol Domain Preak Intensity [1]: 19.1 ± 1.2
Relative Cholesterol Domain Preak Intensity ([1]; listed as glycyrrhizin): 19.1±1.2

CC(C)OC(=O)C(C)(C)Oc1ccc(C(=O)c2ccc(Cl)cc2)cc1 [fenofibrate]
ONOO^− [2]: 299 ± 24
reduction of NO release as compared to vehicle-treated, oxidized sdLDL [3]: 21%
